Results reported in US11076595B2, “1-(n,n-disubstituted carbamoyl) 4-(substituted sulfonyl)triazolin-5-one derivative, 4-(n,n-disubstituted carbamoyl) 1-(substituted sulfonyl)triazolin-5-one derivative, and herbicide containing said derivative as active ingredient” (HOKKO CHEMICAL INDUSTRY CO., LTD., priority 2017, dated 2021).

How the values were obtained:
Format in all cases: in vivo
Chenopodium album [1] = test: Test Example 13: herbicidal effect test by soil treatment in upland field; conditions: 120 g/10a, 14 days after treatment
Summary of the method: (§1)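 Pre-emergence soil spray, 1 d post-sowing; emulsifiable concentrate in water, 100 L/10 are, 120 g a.i./10 are. Pots 36 cm^2, alluvial soil, 20 seeds/species in top 1 cm. n=2; read 14 d; suppression % = (1 − treated/untreated mean dry weight) × 100.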

crabgrass [2] = test: as above; conditions: 120 g/10a, 14 days after treatment
Summary of the method: as §1

Amaranthus viridis [3] = test: as above; conditions: 120 g/10a, 14 days after treatment
Summary of the method: as §1

Echinochloa crus-galli [4] = test: as above; conditions: 120 g/10a, 14 days after treatment
Summary of the method: as §1

Chenopodium album [5] = test: Test Example 14: herbicidal effect test by foliage treatment in upland field; conditions: 7 days after sowing, 120 g/10a, 14 days after treatment
Summary of the method: (§2)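 Emulsifiable concentrate, water-diluted, is applied post-emergence to 7-day-old sowings in field soil at 120 g active ingredient per 10 are. The weed suppression rate derives from average dry weights versus untreated controls, measured 14 days later.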

crabgrass [6] = test: as above; conditions: 7 days after sowing, 120 g/10a, 14 days after treatment
Summary of the method: as §2

Echinochloa crus-galli [7] = test: Test Example 12: herbicidal effect test by treatment during growing period in paddy field; conditions: 120 g/10a; treatment seven days after sowing in flooded paddy pot; assessed 14 days after treatment
Summary of the method: (§3)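 Water-diluted emulsifiable concentrate added dropwise to flooded pots (~3 cm water) 7 d after sowing; rate 120 g active ingredient per 10 are. Weeds grown from 30 seeds each in puddled paddy soil under greenhouse conditions. Dry-weight suppression rate relative to untreated plots determined 14 d after treatment, duplicates.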

Scirpus juncoides [8] = test: as above; conditions: 120 g/10a; treatment seven days after sowing in flooded paddy pot; assessed 14 days after treatment
Summary of the method: as §3

Monochoria vaginalis [9] = test: as above; conditions: 120 g/10a; treatment seven days after sowing in flooded paddy pot; assessed 14 days after treatment
Summary of the method: as §3

Lindernia pyxidaria [10] = test: as above; conditions: 120 g/10a; treatment seven days after sowing in flooded paddy pot; assessed 14 days after treatment
Summary of the method: as §3

Echinochloa crus-galli [11] = test: Test Example 11: herbicidal effect test by soil treatment in paddy field; conditions: 120 g/10a active ingredient, 14 days after treatment
Summary of the method: (§4)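 Pre-emergence paddy test, 120 g a.i./10 are, emulsifiable concentrate diluted in water and added dropwise to ~3 cm flood water right after sowing (30 seeds/species, 0–1 cm depth, fertilized puddled soil). Greenhouse; 2 replicates; dry-weight suppression (%) vs untreated, day 14.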

Scirpus juncoides [12] = test: as above; conditions: 120 g/10a active ingredient, 14 days after treatment
Summary of the method: as §4

Monochoria vaginalis [13] = test: as above; conditions: 120 g/10a active ingredient, 14 days after treatment
Summary of the method: as §4

Lindernia pyxidaria [14] = test: as above; conditions: 120 g/10a active ingredient, 14 days after treatment
Summary of the method: as §4

Amaranthus viridis [15] = test: Test Example 14: herbicidal effect test by foliage treatment in upland field; conditions: 7 days after sowing, 120 g/10a, 14 days after treatment
Summary of the method: as §2

Echinochloa crus-galli [16] = test: as above; conditions: 7 days after sowing, 120 g/10a, 14 days after treatment
Summary of the method: as §2

Structure (SMILES) | herbicidal effect, Chenopodium album (Chenopodium album [1]) [%] | herbicidal effect, Crabgrass (crabgrass [2]) [%] | herbicidal effect, Amaranthus viridis (Amaranthus viridis [3]) [%] | herbicidal effect, Echinochloa crus-galli (Echinochloa crus-galli [4]) [%] | herbicidal effect, Chenopodium album (Chenopodium album [5]) [%] | herbicidal effect, Crabgrass (crabgrass [6]) [%] | Weed suppression rate (%) Echinochloa crus-galli (Echinochloa crus-galli [7]) [%] | Weed suppression rate (%) Scirpus juncoides (Scirpus juncoides [8]) [%] | Weed suppression rate (%) Monochoria vaginalis (Monochoria vaginalis [9]) [%] | Weed suppression rate (%) Lindemia pyxidaria (Lindernia pyxidaria [10]) [%] | Weed suppression rate (%) Echinochloa crus-galli (Echinochloa crus-galli [11]) [%] | Weed suppression rate (%) Scirpus juncoides (Scirpus juncoides [12]) [%] | Weed suppression rate (%) Monochoria vaginalis (Monochoria vaginalis [13]) [%] | Weed suppression rate (%) Lindemia pyxidaria (Lindernia pyxidaria [14]) [%] | herbicidal effect, Amaranthus viridis (Amaranthus viridis [15]) [%] | herbicidal effect, Echinochloa crus-galli (Echinochloa crus-galli [16]) [%]
CC(C)N(C(=O)n1cnn(S(=O)(=O)C2CCCCC2)c1=O)c1c(F)cc(F)cc1F [Compound 11-298] | 60 | 100 | 60 | 100 | 70 | 100 | 100 | 100 | 80 | 80 | 100 | 100 | 100 | 100 | 60 | 100
CC(C)N(C(=O)n1cnn(S(=O)(=O)c2ccc(F)cc2)c1=O)c1ccc(F)cc1Cl [Compound 11-482] | 80 | 90 | 90 | 80 | 80 | 90 | 90 | 90 | 80 | 80 | 90 | 90 | 80 | 80 | 90 | 80
Cc1cc(C)c(S(=O)(=O)n2ncn(C(=O)N(c3ccc(F)cc3C)C(C)C)c2=O)c(C)c1 [Compound 11-876] | 100 | 100 | 70 | 100 | 30 | 100 | 100 | 100 | 100 | 100 | 100 | 100 | 100 | 100 | 30 | 90
CC(C)N(C(=O)n1cnn(S(=O)(=O)C2CC2)c1=O)c1ccc(F)c(F)c1F [Compound 11-194] | 70 | 90 | 100 | 90 | 80 | 100 | 100 | 100 | 100 | 100 | 100 | 100 | 100 | 100 | 90 | 100
CC(C)N(C(=O)n1cnn(S(=O)(=O)C(C)C)c1=O)c1ccccc1 [Compound 11-48] | 80 | 90 | 90 | 80 | 70 | 100 | 90 | 70 | 90 | 70 | 90 | 90 | 80 | 80 | 40 | 90
CC(C)N(C(=O)n1cnn(S(=O)(=O)C2CCCC2)c1=O)c1ccc(F)cc1F [Compound 11-273] | 90 | 100 | 60 | 90 | 80 | 90 | 100 | 90 | 90 | 90 | 100 | 90 | 90 | 100 | 90 | 80
CCS(=O)(=O)n1ncn(C(=O)N(c2c(F)cccc2F)C(C)C)c1=O [Compound 11-1150] | 80 | 100 | 90 | 100 | 60 | 100 | 100 | 60 | 90 | 100 | 100 | 90 | 70 | 100 | 50 | 100
CC(C)N(C(=O)n1cnn(S(=O)(=O)C(C)C)c1=O)c1cccc(F)c1F [Compound 11-58] | 70 | 90 | 70 | 100 | 70 | 100 | 100 | 100 | 100 | 100 | 100 | 100 | 100 | 100 | 30 | 90
CC(C)N(C(=O)n1cnn(S(=O)(=O)c2cccc(F)c2)c1=O)c1ccccc1 [Compound 11-427] | 60 | 90 | 40 | 70 | 60 | 90 | 90 | 90 | 90 | 90 | 100 | 60 | 60 | 80 | 40 | 40
